# According to patent US6858591B2, “Antibiotic AA 896 analogs” (Wyeth Holdings Corporation, priority 2001, dated 2005):
# Where two headings read alike, the source gives them in different places.
# How the values were obtained:
# Assay in all cases: In vitro MIC, broth dilution
# Format in all cases: cell-based
# E. coli GC 4559 = conditions: Escherichia coli, GC4559
# E. coli GC 4560 = conditions: Escherichia coli, GC4560
# E. coli GC 3226 = conditions: Escherichia coli, GC3226
# S. marcescens GC 4077 = conditions: Serratia marcescens, GC4077
# C. albicans GC 3066 = conditions: Candida albicans, GC3066
# M. morganii GC 4531 = conditions: Morganella morganii, GC4531
# K. pneumoniae GC 4534 = conditions: Klebsiella pneumoniae, GC4534
# E. cloacae GC 3783 = conditions: Enterobacter cloacae, GC3783
# P. aeruginosa GC 4532 = conditions: Pseudomonas aeruginosa, GC4532
# CNS GC 4537 = tested on: CNS GC 4537
# Description: (§1) The minimum inhibitory concentration (MIC), the lowest concentration of the antibiotic which inhibits growth of the test organism, is determined by the broth dilution method using Muller-Hinton II […] (Baltimore Biological Laboratories) following the recommendations of National Committee for Clinical Laboratory Standards. [Reference for the Methods for dilution antimicrobial susceptibility tests for bacteria that grow aerobically: National Committee for Clinical Laboratory Standards, 1997. Approved standard M7-A National Committee for Clinical Laboratory Standards, Wayne, Pa.] An inoculum level of 5×10^5 CFU/ml, and a range of antibiotic concentrations (64-0.06 μg/ml) is used. The MIC is determined after the microtiter plates are incubated for 18 hours at 35° C. in an ambient air incubator. The test organisms comprise a spectrum of gram-positive bacteria including Staphylococcus sp., Streptococcus sp. and Enterococcus sp. These organisms include recent clinical isolates that are resistant to methicillin, penicillin and vancomycin.
# CNS GC 4538 = tested on: CNS GC 4538
# Description: as §1
# CNS GC 4547 = tested on: CNS GC 4547
# Description: as §1
# E. faecalis GC 2242 = conditions: Enterococcus faecalis, GC2242
# Description: as §1
# E. faecalis GC 4555 = conditions: Enterococcus faecalis, GC4555
# Description: as §1
# E. faecalis GC 842 = conditions: Enterococcus faecalis, GC842
# Description: as §1
# S. aureus GC 1131 = conditions: Staphylococcus aureus, GC1131
# Description: as §1
# S. aureus GC 2216 = conditions: Staphylococcus aureus, GC2216
# Description: as §1
# S. aureus GC 4536 = conditions: Staphylococcus aureus, GC4536
# Description: as §1
# E. coli GC 2203 = conditions: Escherichia coli, GC2203
# P. aeruginosa GC 2214 = conditions: Pseudomonas aeruginosa, GC2214
# [1] = S. marcescens GC 4077, read-out: MIC
# [2] = C. albicans GC 3066, read-out: MIC
# [3] = M. morganii GC 4531, read-out: MIC
# [4] = K. pneumoniae GC 4534, read-out: MIC
# [5] = E. cloacae GC 3783, read-out: MIC
# [6] = P. aeruginosa GC 4532, read-out: MIC
# [7] = E. faecalis GC 2242, read-out: MIC
# [8] = E. faecalis GC 4555, read-out: MIC
# [9] = E. faecalis GC 842, read-out: MIC
# [10] = S. aureus GC 1131, read-out: MIC
# [11] = S. aureus GC 2216, read-out: MIC
# [12] = S. aureus GC 4536, read-out: MIC
# [13] = P. aeruginosa GC 2214, read-out: MIC
SMILES,"MIC (E. coli GC 4559; E. coli GC 4559, read-out: MIC)","MIC (E. coli GC 4560; E. coli GC 4560, read-out: MIC)","MIC (E. coli GC 3226; E. coli GC 3226, read-out: MIC)",MIC (S. marcescens GC 4077; [1]),MIC (C. albicans GC 3066; [2]),MIC (M. morganii GC 4531; [3]),MIC (K. pneumoniae GC 4534; [4]),MIC (E. cloacae GC 3783; [5]),MIC (P. aeruginosa GC 4532; [6]),"MIC (CNS GC 4537; CNS GC 4537, read-out: MIC)","MIC (CNS GC 4538; CNS GC 4538, read-out: MIC)","MIC (CNS GC 4547; CNS GC 4547, read-out: MIC)",MIC (E. faecalis GC 2242; [7]),MIC (E. faecalis GC 4555; [8]),MIC (E. faecalis GC 842; [9]),MIC (S. aureus GC 1131; [10]),MIC (S. aureus GC 2216; [11]),MIC (S. aureus GC 4536; [12]),"MIC (E. coli GC 2203; E. coli GC 2203, read-out: MIC)",MIC (P. aeruginosa GC 2214; [13]),also measured
"COc1ccc(Cn2c(=O)ccn([C@@H]3OC([C@H](O)[C@H](NCCCNC(=O)[C@@H](N)CC(C)C)C(=O)OC(C)(C)C)[C@@H](O)[C@H]3O)c2=O)cc1 (stereo partly drawn) [Example 54, tert-Butyl (2S,3R)-2-[(3-{[(2S)-2-amino-4-methylpentanoyl]amino}propyl)amino]-3-[(3S,4R,5R)-3,4-dihydroxy-5-(3-(4-methoxybenzyl)-2,4-dioxo-3,4-dihydro-1(2H)-pyrimidinyl)tetrahydro-2-furanyl]-3-hydroxypropanoate]",> 128 µg/mL,128 µg/mL,> 128 µg/mL,> 128 µg/mL,> 128 µg/mL,128 µg/mL,> 128 µg/mL,> 128 µg/mL,> 128 µg/mL,> 128 µg/mL,> 128 µg/mL,> 128 µg/mL,128 µg/mL,> 128 µg/mL,128 µg/mL,> 128 µg/mL,> 128 µg/mL,> 128 µg/mL,> 128 µg/mL,128 µg/mL,
"COc1ccc(Cn2c(=O)ccn([C@@H]3OC([C@H](O)[C@H](NCCCNC(=O)[C@@H](NC(=O)OCc4ccccc4)C(C)O)C(=O)O)[C@@H](O)C3O[Si](C)(C)C(C)(C)C)c2=O)cc1 (stereo in doubt) [Example 46, (5S,12S)-12-[(R)-[(3R,4R,5R)-4-{[tert-butyl(dimethyl)silyl]oxy}-3-hydroxy-5-(3-(4-methoxy-benzyl)-2,4-dioxo-3,4-dihydro-1(2H)-pyrimidinyl)tetrahydro-2-furanyl](hydroxy)methyl]-5-[(1S)-1-hydroxyethyl]-3,6-dioxo-1-phenyl-2-oxa-4,7,11-triazatridecan-13-oic acid]",> 128 µg/mL,128 µg/mL,> 128 µg/mL,> 128 µg/mL,128 µg/mL,128 µg/mL,> 128 µg/mL,> 128 µg/mL,128 µg/mL,> 128 µg/mL,> 128 µg/mL,> 128 µg/mL,128 µg/mL,128 µg/mL,128 µg/mL,> 128 µg/mL,> 128 µg/mL,> 128 µg/mL,> 128 µg/mL,128 µg/mL,
"COc1ccc(Cn2c(=O)ccn([C@@H]3OC([C@H](O)[C@H](NCCCNC(=O)[C@H](Cc4ccccc4)NC(=O)OCc4ccccc4)C(=O)OC(C)(C)C)[C@@H](O[Si](C)(C)C(C)(C)C)[C@H]3O[Si](C)(C)C(C)(C)C)c2=O)cc1 (stereo partly drawn) [Example 12, tert-Butyl (5S,12S)-5-benzyl-12-[(R)-[(3R,4R,5R)-3,4-bis{[tertbutyl(dimethyl)silyl]oxy}-5-(3-(4-methoxybenzyl)-2,4-dioxo-3,4-dihydro-1(2H)-pyrimidinyl)tetrahydro-2-furanyl](hydroxy)methyl]-3,6-dioxo-1-phenyl-2-oxa-4,7,11-triazatridecan-13-oate]",,,,,,,,,,,,,,,,,,,,,MIC (E. coli GC 4559): > 128 µg/mL; MIC (E. coli GC 4560): 128 µg/mL; MIC (E. coli GC 3226): > 128 µg/mL; MIC (S. marcescens GC 4077): 128 µg/mL; MIC (C. albicans GC 3066): 128 µg/mL; MIC (M. morganii GC 4531): 128 µg/mL; MIC (K. pneumoniae GC 4534): > 128 µg/mL; MIC (E. cloacae GC 3783): 128 µg/mL; MIC (P. aeruginosa GC 4532): 128 µg/mL; MIC (CNS GC 4537): > 128 µg/mL; MIC (CNS GC 4538): > 128 µg/mL; MIC (CNS GC 4547): 128 µg/mL; MIC (E. faecalis GC 2242): 128 µg/mL; MIC (E. faecalis GC 4555): 128 µg/mL; MIC (E. faecalis GC 842): 128 µg/mL; MIC (S. aureus GC 1131): > 128 µg/mL; MIC (S. aureus GC 2216): > 128 µg/mL; MIC (S. aureus GC 4536): > 128 µg/mL; MIC (E. coli GC 2203): > 128 µg/mL; MIC (P. aeruginosa GC 2214): 128 µg/mL
